`Cc1cnc2c(-c3ccc(F)cc3)c(-c3ccncc3)[nH]c2c1` [Example 1, 3-(4-Fluoro-phenyl)-6-methyl-2-pyridin-4-yl-1H-pyrrolo[3,2-b]pyridine] registered a melting point of 127 to 128 °C.

`COCn1c(-c2ccncc2)c(-c2ccc(F)cc2)c2ncc(C)cc21` [Example 2, 3-(4-Fluoro-phenyl)-1-methoxymethyl-6-methyl-2-pyridin-4-yl-1H-pyrrolo[3,2-b]pyridine] gave a melting point of 208 to 209 °C.

`COCOn1c(-c2ccncc2)c(-c2ccc(F)cc2)c2ncccc21` [Example 5, 3-(4-Fluoro-phenyl)-1-methoxymethoxy-2-pyridin-4-yl-1H-pyrrolo[3,2-b]pyridine] registered a melting point of 169 to 170 °C.

Take `COC(=O)CC(=O)Nc1cc(-c2[nH]c3cc(C)cnc3c2-c2ccc(F)cc2)ccn1` [Example 8, N-{4-[3-(4-Fluoro-phenyl)-6-methyl-1H-pyrrolo[3,2-b]pyridin-2-yl]-pyridin-2-yl}-malonamic acid methyl ester]: the melting point lay within 237 to 238 °C.

In turn, `FCCn1c(-c2ccnc(Nc3cccc(F)c3)c2)c(-c2ccc(F)cc2)c2ncccc21` [Example 9, {4-[1-(2-Fluoro-ethyl)-3-(4-fluoro-phenyl)-1H-pyrrolo[3,2-b]pyridin-2-yl]-pyridin-2-yl}-(3-fluoro-phenyl)-amine] registered a melting point of 255 to 256 °C.

As for `NC(=O)c1cc(-c2[nH]c3cccnc3c2-c2ccc(F)cc2)ccn1` [Example 10, 4-[3-(4-Fluoro-phenyl)-1H-pyrrolo[3,2-b]pyridin-2-yl]-pyridine-2-carboxylic acid amide], the melting point is 157 to 158 °C.

For the compound `Fc1ccc(-c2c(-c3ccncn3)[nH]c3cccnc23)cc1` [Example 11, 3-(4-Fluoro-phenyl)-2-pyrimidin-4-yl-1H-pyrrolo[3,2-b]pyridine], the melting point was 169 to 170 °C.

As to `COCC(C)Nc1nccc(-c2c(-c3ccc(F)cc3)c3ncccc3n2COC)n1` (centres unmarked) [Example 12, {4-[3-(4-Fluoro-phenyl)-1-methoxymethyl-1H-pyrrolo[3,2-b]pyridin-2-yl]-pyrimidin-2-yl}-(2-methoxy-1-methyl-ethyl)-amine], the melting point lay in the range of 151 to 152 °C.

The record behind these values is US8084395B2, “4-aza indole derivatives and their use as fungicides” (Syngenta Crop Protection, Inc., priority 2007, dated 2011).
